Assay results: US20250186396A1, “COMPOSITIONS AND METHODS FOR THE TREATMENT OF GLIOBLASTOMA WITH A DUAL TARGETING ANTI-TUMOR COMPOSITION” (Northwestern University, priority 2023, published 2025)

Tested on: OLFML3
Assay: RT-qPCR of OLFML3 in PTEN-KO SF763 cells
Type: cell-based, human
Details: shC PTEN-KO SF763 cells; SC75741 5 μM; 8 hours
Experimental: Cell Culture. The GBM cell lines U87, U251, SF763, LN229, and CT2A, as well as 293T cells were cultured in Dulbecco's Modified Eagle's Medium (DMEM; Gibco, #11995-065). The mouse glioma cell line GL261 cells and SIM-A9 microglia were cultured in Dulbecco's Modified Eagle Medium-Ham's F12 medium (Gibco, #10565-018). HMC3 microglia were cultured in Eagle's Minimum Essential Medium (ATCC, #30-2003). THP-1 macrophages were cultured in RPMI 1640 medium (Gibco, #11875093). All cell lines were cultured in the indicated medium containing 10% fetal bovine serum (FBS; Fisher Scientific, #16140071) and 1:100 antibiotic-antimycotic (Gibco, #15140-122), and were purchased from the American Type Culture Collection (ATCC). Human GSCs (GSC23 and GSC7-10) and mouse GBM tumor-derived 005 GSCs and QPP7 GSCs were cultured in neural stem cell (NSC) proliferation media (Millipore, #SCM005) containing 20 ng/mL epidermal growth factor (EGF; PeproTech, #AF-100-15) and basic fibroblast growth factor (bFGF; PeproTech, #100-18B). Human GSCs were gifted by Dr. Frederick F. Lang from the Brain Tumor Center (The University of Texas MD Anderson Cancer Center). […]
Quantitative real-time PCR (RT-qPCR). […] RNA was quantified by NanoDrop spectrophotometers and then the All-In-One 5× RT MasterMix (Applied Biological Materials, #G592) was used to reverse-transcribe RNA into cDNA in T100 Thermal Cycler (Bio-Rad). […]

SMILES: O=C(c1ccccc1)c1ccc2nc(NC(=O)c3csc(C4CCN(c5ncnc6ccsc56)CC4)n3)[nH]c2c1 [SC75741]
- mRNA expression of OLFML3: upregulated
